Laboratory results taken from patent publication US20180105548A1, “A novel compound (KS-513) isolated from Pseudolysimachion rotundum var. subintegrum, the composition comprising the same preventing or treating allergic disease, inflammatory disease, asthma or chronic obstructive pulmonary disease and the use thereof” (priority 2015, published 2018).

How the values were obtained:
iNOS = assay: mRNA expression of iNOS in RAW264.7 cell line induced by LPS (real-time PCR); type: cell-based, mouse; settings: for iNOS mRNA expression, Fold (value compared with a negative group) / iNOS mRNA expression, Inhibition ratio (IR) compared with LPS treatment group: LPS 1 μg/ml, 12 hours
Experimental: In order to determine the inhibitory effect on the mRNA expression of pro-inflammatory medicated enzyme such as iNOS or COX-2, and pro-inflammatory medicated cytokines such as IL-1beta, IL-6, TNF-alpha in RAW264.7 cell line induced by LPS, following test using by real-time PCR (real-time polymerase chain reaction, quantitative real time polymerase chain reaction, qPCR) was performed according to the method disclosed in the literature (Livak, K. J., Schimittgen T. D., 2001, Analysis of relative gene expression data using real-time quantitiative PCR and the 2 (-Delta Delta C(T) method, Methods 25, p 402-408):
RAW264.7 cell was inoculated into 6-well-plates in the concentration of 1×10^6 cell/well to incubate for 12 hours. Various concentration of KS-513 compound (2.5, 5, 10 and 20 μM) was pre-treated therewith and 1 μg/mL of LPS (L6529, Sigma) was added thereto to incubate for 12 hours.
To extract total RNA, RNA was extracted using by Triazol B (invitrogen) and cDNA was synthesized using by Omniscript RT kit (205113, Qiagen, Gmbh, Hilden, Germany) after the quantification. The synthesized cDNA was mixed with its template and the primers shown in Table 3 (SEQ.I.D. 1-14), performed to denaturation at 94° C. for 5 mins using by PCR mix (PCR master Mix, Bioneer, Korea), and reacted as follows: 1 cycle for pre-denaturation; at 95° C. for 30 sec, 60° C. for 45 sec, 72° C. for 45 sec, 30 cycles for denaturation; 10 mins at 72° C., 1cycle for final extension. (FIG. 2)

NO = NO production in LPS-treated RAW264.7 cell (Griess Reagent); type: cell-based, mouse; settings: for NO production (relative % comparing with LPS treatment group) / NO production, Inhibitory ratio (%): LPS 1 μg/mL, 24 hours
Experimental: In order to determine the amount of NO reproduction in medium, following test was performed according to the method disclosed in the literature (Ding, A. H., et al., 1988, Release of reactive nitrogen intermediates and reactive oxygen intermediates from mouse peritoneal macrophages, Comparison of activating cytokines and evidence for independent production, Journal of Immunology, 141, pp 2407-2412).
RAW264.7 cell was inoculated into 96 well plates in the concentration of 1×10^5 cell/well to incubate for 18 hours. Various concentration of KS-513 compound (2.5, 5, 10 and 20 μM) was pre-treated therewith and 1 μg/mL of LPS (L6529, Sigma) was added thereto to incubate for 24 hours. The equivalent amount of Griess Reagent (G4410, Sigma) to the medium was added thereto and reacted at room temperature for 10 mins to determine the absorbance at 540 nm. The level of NO in the medium was determined using by standard curve expressed according to various concentration of sodium nitrite and the result was shown in Table 5 and FIG. 3.

COX-2 = COX-2 protein expression in RAW264.7 cell induced by LPS (Western blot); type: cell-based, mouse; settings: LPS 1 μg/ml, FIG. 4A
Experimental: (§1) In order to determine the inhibitory effect on the COX-2 protein expression and the reproduced level of PGE2, following test was performed by the method disclosed in the literature (Chen, C, et al., 1999, Involvement of p 38 mitogen-activated protein kinase in lipopolysaccharide-induced iNOS and COX-2 expression in J774 macrophage, Immunology, 97, pp 124-129)
The expressed level of COX-2 in RAW264.7 cell induced by LPS (1 μg/ml) was determined by using Western blot analysis according to the method disclosed in Experimental Example 3.

PGE2 = PGE2 production in LPS-treated RAW264.7 cell (EIA); type: cell-based, mouse; settings: for PGE2 production (relative % comparing with LPS treatment group) / PGE2 production, Inhibitory ratio (%): LPS 1 μg/mL, 24 hours
Experimental: as §1
RAW264.7 cell was inoculated into 96 well plates in the concentration of 1×10^5 cell/well to incubate for 18 hours. Various concentration of KS-513 compound (2.5, 5, 10 and 20 μM) was pre-treated therewith and 1 μg/mL of LPS (L6529, Sigma) was added thereto to incubate for 24 hours. The PGE2 level in the cell was determined by Enzyme immunoassay (EIA; Amersham Pharmacia) system and the result was shown in FIG. 4A, 4B and Table 6.

IL-6 = IL-6 production in LPS-treated RAW264.7 cell (ELISA); type: cell-based, mouse; settings: for IL-6 production (relative % comparing with LPS treatment group) / IL-6 production, Inhibitory ratio (%): LPS 1 μg/mL, 24 hours
Experimental: (§2) RAW264.7 cell was inoculated into 96 well plates in the concentration of 1×10^5 cell/well to incubate for 18 hours. Various concentration of KS-513 compound (2.5, 5, 10 and 20 μM) was pre-treated therewith and 1 μg/mL of LPS (L6529, Sigma) was added thereto to incubate for 24 hours. The level of inflammatory cytokines such as IL-1beta, IL-6, TNF-alpha etc in the cell medium was determined by ELISA kit (IL-1beta:559603, IL-6:555240, TNF-alpha:5558534, BD) and the result was shown in FIG. 5 and Table 7-9.

TNF-alpha = TNF-alpha production in LPS-treated RAW264.7 cell (ELISA); type: cell-based, mouse; settings: for TNF-alpha production (relative % comparing with LPS treatment group) / TNF-alpha production, Inhibitory ratio (%): LPS 1 μg/mL, 24 hours
Experimental: as §2

[1] = Acute toxicity test of oral administration in rat; settings: Sprague-Dawley, in vivo
Experimental: The acute toxicity test was performed by administrating inventive compound to 6-weeks aged SPF Sprague-Dawley rats.
After administrating the extract or compounds, all the clinical changes i.e., mortality, clinical signs, body weight changes was observed and blood test such as haematological test and hematological biochemistry test was performed. The abnormal changes of abdominal organ and thoracic organ were observed after autopsy.

[2] = vs LPS treatment group (1 μg/ml), FIG. 5

CO[C@@H]1C[C@H]2[C@H](OC(=O)c3ccc(O)cc3)[C@@H]3O[C@]3(CO)[C@H]2[C@H](O[C@@H]2O[C@H](CO)[C@@H](O)C(O)[C@H]2O)O1 (stereo partly drawn) [KS-513, (1aS, 1bS,2S,4S,5aR,6S,6aS)-1a-(hydroxymethyl)-4-methoxy-2-(((2S,3R,5S,6R)-3,4,5-trihydroxy-6-(hydroxymethyl)tetrahydro-2H-pyran-2-yl)oxy)octahydrooxireno[2′,3′:4,5]cyclopenta[1,2-c]pyran-6-yl 4-hydroxybenzoate]
iNOS mRNA expression, Fold (value compared with a negative group) (iNOS; 2.5 μM): 7.25 ± 2.51 Fold | iNOS mRNA expression, Inhibition ratio (IR) compared with LPS treatment group (iNOS; 2.5 μM): 18.41% | iNOS mRNA expression, Fold (value compared with a negative group) (iNOS; 5 μM): 5.94 ± 2.91 Fold | iNOS mRNA expression, Inhibition ratio (IR) compared with LPS treatment group (iNOS; 5 μM): 33.09% | iNOS mRNA expression, Fold (value compared with a negative group) (iNOS; 10 μM): 2.48 ± 0.19 Fold | iNOS mRNA expression, Inhibition ratio (IR) compared with LPS treatment group (iNOS; 10 μM): 72.12% | iNOS mRNA expression, Fold (value compared with a negative group) (iNOS; 20 μM): 1.32 ± 0.47 Fold | iNOS mRNA expression, Inhibition ratio (IR) compared with LPS treatment group (iNOS; 20 μM): 85.19% | expressed level of mRNA of iNOS (iNOS; various concentration, compared with control group treated with LPS (100%)): significantly decreased in a dose dependent manner | NO production (relative % comparing with LPS treatment group) (NO; 2.5 μM): 91.89 ± 4.24% | NO production, Inhibitory ratio (%) (NO; 2.5 μM): 8.21% | NO production (relative % comparing with LPS treatment group) (NO; 5 μM): 83.69 ± 3.79% | NO production, Inhibitory ratio (%) (NO; 5 μM): 16.41% | NO production (relative % comparing with LPS treatment group) (NO; 10 μM): 80.06 ± 2.68% | NO production, Inhibitory ratio (%) (NO; 10 μM): 20.04% | NO production (relative % comparing with LPS treatment group) (NO; 20 μM): 72.16 ± 3.57% | NO production, Inhibitory ratio (%) (NO; 20 μM): 27.94% | reproduced level of NO (NO; based on LPS treatment (100%)): reduced in a dose dependent manner | expressed level of COX-2 protein (COX-2): reduced in a dose dependent manner | PGE2 production (relative % comparing with LPS treatment group) (PGE2; 2.5 μM): 92.68 ± 7.29% | PGE2 production, Inhibitory ratio (%) (PGE2; 2.5 μM): 7.31% | PGE2 production (relative % comparing with LPS treatment group) (PGE2; 5 μM): 72.87 ± 8.78% | PGE2 production, Inhibitory ratio (%) (PGE2; 5 μM): 27.13% | PGE2 production (relative % comparing with LPS treatment group) (PGE2; 10 μM): 51.65 ± 8.44% | PGE2 production, Inhibitory ratio (%) (PGE2; 10 μM): 48.35% | PGE2 production (relative % comparing with LPS treatment group) (PGE2; 20 μM): 28.23 ± 4.72% | PGE2 production, Inhibitory ratio (%) (PGE2; 20 μM): 71.77% | reproduced ratio of PGE2 (PGE2; based on LPS treatment (100%)): reduced in a dose dependent manner | IL-6 production (relative % comparing with LPS treatment group) (IL-6; 2.5 μM): 75.21 ± 2.20% | IL-6 production, Inhibitory ratio (%) (IL-6; 2.5 μM): 24.79% | IL-6 production (relative % comparing with LPS treatment group) (IL-6; 5 μM): 71.34 ± 5.75% | IL-6 production, Inhibitory ratio (%) (IL-6; 5 μM): 28.66% | IL-6 production (relative % comparing with LPS treatment group) (IL-6; 10 μM): 51.13 ± 2.31% | IL-6 production, Inhibitory ratio (%) (IL-6; 10 μM): 48.87% | IL-6 production (relative % comparing with LPS treatment group) (IL-6; 20 μM): 39.25 ± 2.85% | IL-6 production, Inhibitory ratio (%) (IL-6; 20 μM): 60.75% | level of produced IL-6 (IL-6; [2]): reduced in a dose dependent manner | TNF-alpha production (relative % comparing with LPS treatment group) (TNF-alpha; 2.5 μM): 97.38 ± 0.58% | TNF-alpha production, Inhibitory ratio (%) (TNF-alpha; 2.5 μM): 2.62% | TNF-alpha production (relative % comparing with LPS treatment group) (TNF-alpha; 5 μM): 86.12 ± 1.14% | TNF-alpha production, Inhibitory ratio (%) (TNF-alpha; 5 μM): 13.88% | TNF-alpha production (relative % comparing with LPS treatment group) (TNF-alpha; 10 μM): 68.03 ± 2.51% | TNF-alpha production, Inhibitory ratio (%) (TNF-alpha; 10 μM): 31.97% | TNF-alpha production (relative % comparing with LPS treatment group) (TNF-alpha; 20 μM): 58.44 ± 3.50% | TNF-alpha production, Inhibitory ratio (%) (TNF-alpha; 20 μM): 41.56% | level of produced TNF-alpha (TNF-alpha; [2]): reduced in a dose dependent manner | LD50 at 14 days [1]: > 5000 mg/kg
